Our source for the IC50 and inhibition values is US10047059B2, “Substituted quinoxalines for inhibiting kinase activity” (NEUPHARMA, INC., priority 2012, dated 2018).

A value given as a limit tells only on which side of the number the result lay.

For experiment [1], the system named is A549 cells. Description: Inhibition of cancer cell growth, MTT or MTS assay, A549. The following applies: Homo sapiens, 72 h incubation. Format: cell-based. As for the experimental part: (§1) Inhibition of cell growth by compounds was measured using MTT or MTS assay. Tumor cell lines were purchased from ATCC (American Type Culture Collection, Manassas, Va.). All cell lines were maintained in RPMI 1640 (Hyclone) supplemented with 10% fetal bovine serum (FBS, Hyclone), glutamine (2 mM, Hyclone), and antibiotics (penicillin 100 U/mL and streptomycin 50 μg/mL) at 37° C. in a humidified atmosphere of 5% CO2 in air. Taxol (as a positive control, Sigma) and compounds were dissolved in DMSO (Sigma), and the final concentration of DMSO in the medium was 1%. Tumor cells were plated in 96-well plates at densities of about 2000 (A375) or 4000 (A549 and Colo205) cells/well of a 96-well plate and allowed to adhere/grow for 24 h. They were then treated with various concentrations of drug and incubated for 72 h. For MTT method, medium was then removed by inverting and tapping the plates. 100 μL of MTT (0.5 mg/ml) was added to each well followed by an incubated at 37° C. for 4 h. MTT was then removed and 200 μL of DMSO was added to each well, and the ODs at 570 nm were measured after a 5 second shaking cycle in a 96-well spectrophotometer. For MTS method, 20 μL MTS (CellTiter 96 Aqueous One Solution, Promega) was added to each well followed by an incubated at 37° C. for 2-4 h, solutions were then directly put in a 96-well spectrophotometer, and the ODs at 490 nm were measured.
(§2) All concentrations of compounds were tested in triplicate and controls were averaged over 4 wells. IC50 was calculated by plotting the concentration of compound vs the percentage of inhibition in treated wells using GraphPad Prism 5. […] The scale utilized in Tables 7-9 is as follows: +++ less than 1000 nM; ++ between 1000 nM and 5000 nM; and + greater than 5000 nM. The scale utilized in […]

Experiment [2] deals with T1, BRAF (Homo sapiens, UniProt P15056).
T1 construct: purchased Invitrogen
Description: Z'-LYTE kinase inhibition assay against BRAF. Format: biochemical. The following applies: Z'-LYTE method. As for the experimental part: (§3) Inhibitory activities Inhibitory activities of compounds against BRAF, and BRAF V600E were measured by Invitrogen using Z′-LYTE® Method as briefly described in the following. 4× Test compounds are dissolved in 1% DMSO. […] ATP solutions are diluted to a 4×ATP working concentration in Kinase Buffer (50 mM HEPES pH 7.5, 0.01% BRIJ-35, 10 mM MgCl2, 1 mM EGTA). Reaction started by 30-second shaking of mixture consisting of 2.5 μL 4× test compound, […] and 2.5 μL 4×ATP Solution on Bar-coded Corning, low volume NBS, black 384-well plate (Corning Cat. #3676). Then the mixture was incubated for 60-minute at room temperature for the kinase reaction, followed by addition of 5 μL of a 1:1024 dilution of development reagent A and 30-second plate shake. The mixture was then incubated for another 60-minute at room temperature for development reaction. Fluorescence was read by plate reader. IC50 was calculated by plotting the concentration of compound vs the percentage of inhibition in treated wells using GraphPad Prism 5.
(§4) Table 2 and 3 show % inhibition at 1 μM of several compounds of the invention against BRAF and BRAF V600E, respectively, using Z′-LYTE® method.

Experiment [3] relates to A375 cells. Description: Inhibition of cancer cell growth, MTT or MTS assay, A375. The following applies: Homo sapiens, A-375, 72 h incubation. Format: cell-based. The method, then:
as §1, §2
In general terms: Tetrazolium assays rely on reduction of a dye to a coloured formazan, in cell work by metabolically active cells.

For experiment [4], the target named is T2, KDR (VEGFR2) (Homo sapiens, UniProt P35968).
T2 construct: purchased Invitrogen
Description: Z'-LYTE kinase inhibition assay against KDR. Type of experiment: biochemical. Particulars: Z'-LYTE method. The method, then: Inhibitory activities of compounds against KDR (VEGFR2) were also measured by Invitrogen using Z′-LYTE® Method as described above with the following modification. The 2×KDR (VEGFR2)/Tyr 01 mixture is prepared in 50 mM HEPES pH 7.5, 0.01% BRIJ-35, 10 mM MgCl2, 1 mM EGTA. The final 10 μL Kinase Reaction consists of 0.5-11.7 ng KDR (VEGFR2) and 2 μM Tyr 01 in 50 mM HEPES pH 7.5, 0.01% BRIJ-35, 10 mM MgCl2, 1 mM EGTA. After the 1 hour Kinase Reaction incubation, 5 μL of a 1:256 dilution of Development Reagent B is added.
The scale utilized in Table 6 is as follows: +++ less than 100 nM; and ++ greater than 100 nM

Experiment [5] concerns the target T3, BRAF V600E (Homo sapiens, UniProt P15056, V600E).
T3 construct: purchased Invitrogen
Description: Z'-LYTE kinase inhibition assay against BRAF V600E. Format: biochemical. The following applies: % inhibition at 1 μM, Z'-LYTE method. The method, then:
as §3, §4
The scale utilized in Table 4 is as follows: +++ less than 100 nM; and ++ greater than 100 nM.

Experiment [6] has as its system Colo205 cells. Description: Inhibition of cancer cell growth, MTT or MTS assay, Colo205. The following applies: Homo sapiens, COLO 205, 72 h incubation. Type of experiment: cell-based. The method, then:
as §1, §2

T1 sequence (P15056 whole entry): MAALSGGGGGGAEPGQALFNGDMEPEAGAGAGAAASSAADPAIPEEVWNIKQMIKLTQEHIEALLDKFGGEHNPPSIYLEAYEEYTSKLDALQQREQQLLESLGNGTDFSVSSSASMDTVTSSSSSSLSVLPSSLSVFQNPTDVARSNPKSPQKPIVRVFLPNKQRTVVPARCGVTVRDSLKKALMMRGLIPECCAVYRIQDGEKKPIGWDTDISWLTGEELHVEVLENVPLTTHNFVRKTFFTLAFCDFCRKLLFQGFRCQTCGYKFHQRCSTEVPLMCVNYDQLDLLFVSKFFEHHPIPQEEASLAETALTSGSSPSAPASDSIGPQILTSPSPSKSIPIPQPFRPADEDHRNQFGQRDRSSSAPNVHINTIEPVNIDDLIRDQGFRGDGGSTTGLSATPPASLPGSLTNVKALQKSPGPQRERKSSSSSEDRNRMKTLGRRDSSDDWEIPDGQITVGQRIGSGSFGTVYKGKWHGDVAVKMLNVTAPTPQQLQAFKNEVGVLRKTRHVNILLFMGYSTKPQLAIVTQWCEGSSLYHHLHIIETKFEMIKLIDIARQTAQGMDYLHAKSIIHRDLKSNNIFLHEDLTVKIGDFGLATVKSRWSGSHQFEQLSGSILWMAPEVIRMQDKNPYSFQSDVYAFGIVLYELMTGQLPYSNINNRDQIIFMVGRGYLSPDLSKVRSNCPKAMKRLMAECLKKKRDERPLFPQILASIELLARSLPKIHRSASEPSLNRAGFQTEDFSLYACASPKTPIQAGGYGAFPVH
T3 sequence (P15056 whole entry V600E): as the sequence (P15056 whole entry) above, with V600E counted along it
T2 sequence (P35968 20-1356): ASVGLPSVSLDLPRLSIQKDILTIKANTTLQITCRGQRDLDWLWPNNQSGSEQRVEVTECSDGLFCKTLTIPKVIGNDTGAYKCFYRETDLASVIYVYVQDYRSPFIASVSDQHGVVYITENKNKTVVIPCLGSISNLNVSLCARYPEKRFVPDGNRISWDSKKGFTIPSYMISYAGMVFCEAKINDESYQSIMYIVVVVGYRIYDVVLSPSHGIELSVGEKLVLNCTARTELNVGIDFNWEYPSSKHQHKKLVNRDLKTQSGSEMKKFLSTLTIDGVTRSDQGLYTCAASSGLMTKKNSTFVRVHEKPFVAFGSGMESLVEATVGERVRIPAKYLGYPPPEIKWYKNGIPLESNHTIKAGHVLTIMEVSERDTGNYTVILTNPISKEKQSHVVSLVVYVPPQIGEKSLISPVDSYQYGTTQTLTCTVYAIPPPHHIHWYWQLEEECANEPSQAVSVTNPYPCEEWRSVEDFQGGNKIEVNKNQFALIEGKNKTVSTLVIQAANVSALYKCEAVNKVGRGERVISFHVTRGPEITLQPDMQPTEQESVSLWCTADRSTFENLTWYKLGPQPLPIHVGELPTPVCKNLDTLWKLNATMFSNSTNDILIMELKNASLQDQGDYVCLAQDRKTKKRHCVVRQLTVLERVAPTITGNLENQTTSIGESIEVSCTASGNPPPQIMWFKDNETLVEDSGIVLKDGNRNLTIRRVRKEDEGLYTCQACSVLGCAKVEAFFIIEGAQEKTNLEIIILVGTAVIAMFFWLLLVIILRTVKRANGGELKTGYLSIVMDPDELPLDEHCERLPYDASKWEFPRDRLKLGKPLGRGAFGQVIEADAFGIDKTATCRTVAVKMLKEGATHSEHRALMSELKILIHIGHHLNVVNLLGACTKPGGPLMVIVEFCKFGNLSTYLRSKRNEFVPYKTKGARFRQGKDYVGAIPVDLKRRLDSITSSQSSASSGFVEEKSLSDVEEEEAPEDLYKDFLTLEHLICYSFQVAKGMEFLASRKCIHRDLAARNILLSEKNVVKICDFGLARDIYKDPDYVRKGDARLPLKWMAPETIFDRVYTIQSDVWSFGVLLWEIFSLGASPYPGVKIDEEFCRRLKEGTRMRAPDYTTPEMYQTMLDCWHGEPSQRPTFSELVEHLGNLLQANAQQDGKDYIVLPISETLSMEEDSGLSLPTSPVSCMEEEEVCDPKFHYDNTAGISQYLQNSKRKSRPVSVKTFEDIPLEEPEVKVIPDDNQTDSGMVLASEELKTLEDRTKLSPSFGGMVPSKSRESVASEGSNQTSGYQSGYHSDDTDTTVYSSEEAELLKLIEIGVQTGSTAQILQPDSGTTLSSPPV

Turning to `O=C(Nc1ccc(C(=O)c2ccc3ncc(N4CCNCC4)nc3c2)cc1)Nc1ccc(Cl)c(C(F)(F)F)c1` [Compound C12, 1-(4-chloro-3-(trifluoromethyl)phenyl)-3-(4-(3-(piperazin-1-yl)quinoxaline-6-carbonyl)phenyl)urea], the concentration for half-maximal inhibition (IC50) in experiment [1] was < 1 µM; in experiment [3] it was < 1000 nM; in experiment [4], > 100 nM; in experiment [6] it was 1000 to 5000 nM. The inhibition at 1 µM in experiment [2] was < 70%; in experiment [4], 70 to 89%; in experiment [5], 70 to 89%.
Regarding `N#Cc1ccc(CC(=O)Nc2ccc(C(=O)c3ccc4ncc(N5CCNCC5)nc4c3)c(F)c2)cc1C(F)(F)F` [Compound C26, 2-(4-cyano-3-(trifluoromethyl)phenyl)-N-(3-fluoro-4-(3-(piperazin-1-yl)quinoxaline-6-carbonyl)phenyl)acetamide], the half-maximal inhibitory concentration (IC50) in experiment [1] is < 1 µM; in experiment [3] it was < 1000 nM; in experiment [4], < 100 nM. The inhibition at 1 µM in experiment [2] was < 70%; in experiment [4], > 89%; in experiment [5] it was > 89%.
In the case of `O=C(Nc1ccc(C(=O)c2ccc3ncc(C4CCNCC4)nc3c2)cc1)Nc1ccc(F)c(C(F)(F)F)c1` [Compound C28, 1-(4-fluoro-3-(trifluoromethyl)phenyl)-3-(4-(3-(piperidin-4-yl)quinoxaline-6-carbonyl)phenyl)urea], the IC50 in experiment [1] is > 5 µM; in experiment [3], 1000 to 5000 nM. Also, the inhibition at 1 µM was < 70% in experiment [2], < 70% in experiment [4] and 70 to 89% in experiment [5].
As for `O=C(Nc1ccc(C(=O)c2ccc3ncc(N4CCNCC4)nc3c2)cc1)Nc1cccc(F)c1` [Compound C19, 1-(3-fluorophenyl)-3-(4-(3-(piperazin-1-yl)quinoxaline-6-carbonyl)phenyl)urea], the IC50 in experiment [1] is 1 to 5 µM; in experiment [3], 1000 to 5000 nM. For the same compound, the inhibition at 1 µM in experiment [2] is < 70%; in experiment [4], < 70%; in experiment [5], > 89%.
Regarding `O=C(Nc1ccc(F)cc1)Nc1ccc(C(=O)c2ccc3ncc(N4CCNCC4)nc3c2)cc1` [Compound C10, 1-(4-fluorophenyl)-3-(4-(3-(piperazin-1-yl)quinoxaline-6-carbonyl)phenyl)urea], the results for the IC50 in experiment [1] and in experiment [3] were 1 to 5 µM and 1000 to 5000 nM, respectively. The inhibition at 1 µM in experiment [2] was < 70%; in experiment [4], < 70%; in experiment [5] it was > 89%.
As to `O=C(Nc1ccc(C(=O)c2ccc3ncc(N4CCOCC4)nc3c2)cc1)Nc1cccc(Cl)c1` [Compound C03, 1-(3-chlorophenyl)-3-(4-(3-morpholinoquinoxaline-6-carbonyl)phenyl)urea], the 50% inhibitory concentration (IC50) lay in the range of 1 to 5 µM in experiment [1] and 1000 to 5000 nM in experiment [3]. The inhibition at 1 µM in experiment [2], in experiment [4] and in experiment [5] was < 70% in each case.
As for `O=C(Nc1cccc(F)c1)Nc1ccc(C(=O)c2ccc3ncc(N4CCNCC4)nc3c2)c(F)c1` [Compound C20, 1-(3-fluoro-4-(3-(piperazin-1-yl)quinoxaline-6-carbonyl)phenyl)-3-(3-fluorophenyl)urea], the values for the IC50 in experiment [1] and in experiment [3] were > 5 µM and 1000 to 5000 nM, respectively. Moreover, the results for the inhibition at 1 µM in experiment [2], in experiment [4] and in experiment [5] were < 70%, < 70% and > 89%, respectively.
As for `O=C(Nc1ccc(C(=O)c2ccc3ncc(N4CCOCC4)nc3c2)cc1)Nc1ccc(F)c(C(F)(F)F)c1` [Compound C06, 1-(4-fluoro-3-(trifluoromethyl)phenyl)-3-(4-(3-morpholinoquinoxaline-6-carbonyl)phenyl)urea], the 50% inhibitory concentration (IC50) lay within 1 to 5 µM in experiment [1] and 1000 to 5000 nM in experiment [3]. Further, the inhibition at 1 µM is 70 to 89% in experiment [4] and < 70% in experiment [5].
With `O=C(Nc1ccc(Cl)cc1)Nc1ccc(C(=O)c2ccc3ncc(N4CCOCC4)nc3c2)cc1` [Compound C04, 1-(4-chlorophenyl)-3-(4-(3-morpholinoquinoxaline-6-carbonyl)phenyl)urea], in experiment [1], the IC50 lay within 1 to 5 µM. Moreover, the inhibition at 1 µM in experiment [2], in experiment [4] and in experiment [5] was < 70% throughout.
In the case of `O=C(Nc1ccc(F)cc1)Nc1ccc(C(=O)c2ccc3ncc(N4CCOCC4)nc3c2)cc1` [Compound C05, 1-(4-fluorophenyl)-3-(4-(3-morpholinoquinoxaline-6-carbonyl)phenyl)urea], the half-maximal inhibitory concentration (IC50) is > 5 µM in experiment [1] and > 5000 nM in experiment [3]. For the same compound, the inhibition at 1 µM in experiment [2], in experiment [4] and in experiment [5] was < 70% in each case.
As for `N#Cc1cnc2ccc(C(=O)c3ccc(NC(=O)Nc4cccc(C(F)(F)F)c4)cc3F)cc2n1` [Compound C29, 1-(4-(3-cyanoquinoxaline-6-carbonyl)-3-fluorophenyl)-3-(3-(trifluoromethyl)phenyl)urea], the figures for the IC50 in experiment [1] and in experiment [3] were 1 to 5 µM and 1000 to 5000 nM, respectively. For the same compound, the inhibition at 1 µM in experiment [4] and in experiment [5] was < 70% each time.
On to `N#Cc1ccc(NC(=O)Nc2ccc(C(=O)c3ccc4ncc(N5CCOCC5)nc4c3)cc2)cc1C(F)(F)F` [Compound C15, 1-(4-cyano-3-(trifluoromethyl)phenyl)-3-(4-(3-morpholinoquinoxaline-6-carbonyl)phenyl)urea], for which the values for the half-maximal inhibitory concentration (IC50) in experiment [1] and in experiment [3] were 1 to 5 µM and 1000 to 5000 nM, respectively. The inhibition at 1 µM was 70 to 89% in experiment [4] and < 70% in experiment [5].
In the case of `N#Cc1ccc(NC(=O)Nc2ccc(C(=O)c3ccc4ncc(N5CCOCC5)nc4c3)c(F)c2)cc1C(F)(F)F` [Compound C18, 1-(4-cyano-3-(trifluoromethyl)phenyl)-3-(3-fluoro-4-(3-morpholinoquinoxaline-6-carbonyl)phenyl)urea], the concentration for half-maximal inhibition (IC50) in experiment [1] fell in the range of 1 to 5 µM; in experiment [3] it was 1000 to 5000 nM. For the same compound, the inhibition at 1 µM in experiment [4] and in experiment [5] was 70 to 89% each time.
Turning to `O=C(Nc1ccc(C(=O)c2ccc3nccnc3c2)cc1)Nc1cccc(F)c1` [Compound C02, 1-(3-fluorophenyl)-3-(4-(quinoxaline-6-carbonyl)phenyl)urea], the IC50 lay in the range of 1 to 5 µM in experiment [1] and 1000 to 5000 nM in experiment [3]. The inhibition at 1 µM in experiment [2], in experiment [4] and in experiment [5] was < 70% throughout.
`O=C(Nc1ccc(C(=O)c2ccc3ncc(N4CCNCC4)nc3c2)cc1)Nc1ccc(C(F)(F)F)cc1` [Compound C13, 1-(4-(3-(piperazin-1-yl)quinoxaline-6-carbonyl)phenyl)-3-(4-(trifluoromethyl)phenyl)urea]: the IC50 in experiment [1] is 1 to 5 µM; in experiment [3], < 1000 nM. Moreover, the inhibition at 1 µM is < 70% in experiment [2], < 70% in experiment [4] and > 89% in experiment [5].

As a reminder, the IC50 is the midpoint of a concentration-inhibition curve. High values mean lower potency, low ones higher potency. A word on the inhibition: it is the drop in the measured response relative to a control, in per cent. A low value points to a response near the control.
